Test results from patent US6086789A, “Medical uses of pyruvates” (Case Western Reserve University, priority 1998, dated 2000).

Experiments:
myocardial infarct = assay: Decrease in myocardial infarct size in swine (LAD occlusion/reperfusion); type: in vivo
Method: Decrease in myocardial infarct size in swine by DPAG.
The animals were anesthetized, instrumented, and subjected to 60 minutes of total occlusion of the distal 2/3 of the left anterior descending coronary artery, followed by 120 min of reperfusion. The area of the infarct was stained with tetrazolium, and infarct size quantitated on 5 mm slices of tissue. Treatment with DPAG was started with the onset of reperfusion (8.0 mg/kgmin for 120 min).

[1] = Therapeutic pyruvate concentration in vivo, infusion of rats; design: species or system rat
Method: Therapeutic pyruvate concentration in vivo with DPAG
After preparing pure DPAG, experiments were performed to test whether it could be used to impose a therapeutic concentration of 1 mM pyruvate in arterial blood. Overnight-fasted rats, anesthetized with halothane, were infused in the jugular vein with DPAG at 90 μmol·min^-1 ·kg^-1 for 90 min. This rate corresponds to about 120% of the rats' caloric requirement. Five blood samples (70 μl) were taken from the carotid artery between 60 and 90 min. The arterial concentrations of pyruvate, lactate, and glycerol were clamped at 1.0, 2.5, and 0.8 mM, respectively. Corresponding portal vein concentrations at 90 min were 0.6, 2.5, and 1.0 mM, respectively. FIGS. 8 and 9 show blood concentrations of metabolites in rats infused with DPAG (panel A) and in control rats infused with saline (panel B). Control rats show normal arterial concentrations of pyruvate (0.05 mM) and lactate (0.3 to 0.6 mM; normal values for lactate are up to 1.5 mM). In rats infused with DPAG, the arterial concentrations of pyruvate and lactate were clamped at 1.0, and 2.5 mM, respectively. Corresponding portal vein concentrations at 90 min were 0.6 and 2.5 mM, respectively. Arterial glucose remained at 5-6 mM. […] Thus, DPAG can be safely used to set up the 1 mM target concentration of pyruvate expected to be beneficial for the treatment of reperfusion injury. […] Third, during peripheral administration of DPAG at 90 μmol·min^-1 ·kg^-1, portal pyruvate concentration was about 2/3 that which yielded a 3 to 6-fold increase in ethanol uptake by perfused rat livers. A portal pyruvate concentration of 1 mM could be achieved (i) by increasing the peripheral infusion of DPAG to 120 μmol·min^-1 ·kg^-1, or (ii) by administering DPAG enterally to better target portal vein concentrations.

perfused rat livers [2] = assay: Effect of DPAG on ethanol uptake by perfused rat livers; conditions: DPAG raised from zero to 0.5 mM, 2 mM ethanol, read-out: increase of ethanol uptake by the liver
Method: The effect of DPAG on the rate of ethanol uptake by perfused rat livers was also tested. Livers were perfused with non-recirculating buffer containing 4 mM glucose, 2 mM ethanol and variable concentrations of DPAG (0 to 1.5 mM). […] Note that 0.5 mM DPAG corresponds to 1 mM pyruvate after hydrolysis. Thus, to accelerate ethanol oxidation in vivo, the rate of DPAG administration should be adjusted to achieve a 1 mM concentration of free pyruvate in the portal vein. When DPAG was infused to live rats at 90 μmol·min^-1·kg^-1, the portal vein concentration of pyruvate was 0.6 mM. A portal pyruvate concentration of 1 mM could be achieved in vivo (i) by increasing the peripheral infusion of DPAG to 120 μmol·min·^-1 ·kg^-1, or (ii) by administering DPAG enterally to better target portal vein concentrations.

[3] = tested on: ketoacidotic diabetic rats; assay: Treatment of ketoacidotic diabetic BB rats; type: in vivo
Method: Prediabetic male BB rats were purchased from the University of Massachussetts Breeding Center. They were treated with insulin (PZI 40 U/mL, Anpro Pharmaceutical), mean of 2.1 U for rats weighing between 250-300 g) as soon as they became hyperglycemic. They were used after at least three weeks of clinical stability and steady weight growth. Under general anesthesia, permanent catheters were inserted in a carotid artery and the controlateral external jugular vein. Then, the rats were deprived of insulin for two days. […] The rats were then treated with one of four protocols: […]

ethanol oxidation = conditions: intragastric gavage, dogs; cited from earlier work
isolated rabbit hearts [4] = assay: Recovery of isolated rabbit hearts following 25 min of warm ischemia; design: species or system New Zealand rabbits; conditions: 20 μM PNACE
Method: In the working mode, which simulates physiological conditions, hearts pump the buffer against a 85 cm hydrostatic pressure in the aorta. The mechanical performance of the hearts was assessed by monitoring heart rate, cardiac output, coronary flow, left ventricular pressure, and dP/dtmax. The latter parameter reflects the capacity of the heart to increase hydrostatic pressure in the left ventricle. Following 30 minutes of equilibration, the hearts were made ischemic for 25 minutes by clamping the aortic and left atrial canulas. Then, the clamps were removed to allow reperfusion with oxygenated KRB buffer containing either no additive (n=7, control group), or 20 μM pyruvate-N-acetyl-cysteine ethyl ester ([…]=7). PNACE was infused via a syringe pump into the inflowing perfusate. In the syringe, PNACE was dissolved in 0.1 mM HCl to prevent hydrolysis of the thioester.

[5] = Stability of PNACE in solution; type: physicochemical
Source text: However, the present inventive compound has proven to be readily manufacturable and very effective in the prevention of organ damage associated with reperfusion injury. The compound has been prepared in pure form and in gram amounts. Its formula has been confirmed by elemental analysis and gas chromatography-mass spectrometry. The compound is stable in slightly acidic solutions (pH 4-5). […] The compound has also been synthesized labeled with three deuterium ^2 H atoms on the N-acetyl moiety. This deuterated compound is used as an internal standard for the assay of the compound by isotope dilution gas chromatography-mass spectrometry.

preserved rat livers = assay: Metabolic integrity of preserved rat livers upon reperfusion
Method: Improved function of preserved rat livers
The first group of livers (n=7, control group) was not preserved, but was perfused at 37° C. for 45 minutes. The second group of livers (n=8, preserved group) was flushed with ice-cold University of Wisconsin (UW) preservation solution and stored for 24 hours in ice-cold UW solution. Next, the livers were reperfused at 37° C. with non-recirculating KRB buffer containing 5 mM glucose. The third group of livers (n=8, preserved+PNACE group) was treated as the second group except that 20 μM PNACE was added to the UW preservation solution and to the reperfusion KRB buffer. During the last 45 min of (re)perfusion, the function of the three groups of livers was assessed by (i) the release of three cellular enzymes, i.e. lactate dehydrogenase, aspartate aminotransferase, and alanine aminotransferase, (ii) oxygen consumption, and (iii) the production of ketone bodies, ie β-hydroxybutyrate+acetoacetate, after addition of 1 mM octanoate to the perfusate.
Effect of PNACE on metabolic integrity of preserved rat livers upon reperfusion

reperfused rat hearts = conditions: cited from earlier work
isolated rabbit hearts [6] = assay: Recovery of isolated rabbit hearts following massive catecholamine injury; conditions: 50 μM isoproterenol, after 10 minutes
Method: Recovery of isolated rabbit hearts following massive catecholamine injury
Rabbit hearts were perfused in the working mode as in the above example. However, after the 30 minutes of equilibration, 50 μM isoproterenol was added to the inflowing perfusate for 10 min. Isoproterenol is a catecholamine, which, at the dose administered, induces a marked increase in heart rate and cardiac output. After 10 minutes, the mechanical performance of the hearts decreased markedly to the point where cardiac output was almost zero. Then, isoproterenol infusion was stopped, and perfusion was continued for 30 minutes with oxygenated KRB buffer containing either no additive (n=7, control group), or 20 μM PNACE (n=7).

perfused rat livers [7] = assay: Acceleration of ethanol oxidation by components of pyruvate esters in perfused rat livers; conditions: perfused liver
Method: Acceleration of ethanol oxidation
Rat livers were infused with ethanol and the components of the esters of glycerol-and-DHA pyruvate to represent the conditions that will occur after ester hydrolysis. […] After 10 min baseline, the influent perfusate was enriched with various equimolar concentrations of the components of the esters, ie DHA+Na-pyruvate, or glycerol+Na-pyruvate (up to 2.2 mM). These conditions simulated infusion and hydrolysis of glycerol- or DHA-monopyruvate. The uptakes of ethanol, pyruvate, DHA and glycerol, as well as the productions of lactate and glucose were measured.

[8] = Group III preserved + PNACE (20 μM), 25-30 min.
[9] = preserved reperfused rat livers, 20 μM PNACE

Q: Which “infarct size, percent of the area at risk for infarction” value (myocardial infarct; DPAG 8.0 mg/kgmin for 120 min from onset of reperfusion, n=6, p<0.0005 vs control 40.0±3.6%) does the source give for `CC(=O)OCC(COC(=O)C(C)=O)OC(=O)C(C)=O` (stereo not shown) [DPAG, dipyruvyl-acetyl-glycerol] here?
A: Its value is 9.1±3.8%.

Q: What about the “effect on heart rate or ventricular pressure” value (myocardial infarct; DPAG infusion) of the same compound?
A: Its value is “did not affect heart rate or ventricular pressure”.

Q: What about the Arterial glucose ([1]; DPAG 90 μmol.min^-1.kg^-1) of the same compound?
A: Its Arterial glucose is 5 to 6 mM.

Q: What about the “portal vein concentration of lactate” value ([1]; DPAG 90 μmol.min^-1.kg^-1, at 90 min) of the same compound?
A: Its value is 2.5 mM.

Q: What about the “acid-base and electrolyte parameters of aortic blood” value ([1]; DPAG 90 μmol.min^-1.kg^-1, final samples) of the same compound?
A: The value was “normal acid-base and electrolyte parameters”.

Q: And the “arterial concentration of lactate” value ([1]; DPAG 90 μmol.min^-1.kg^-1 jugular vein, 60-90 min)?
A: The value was 2.5 mM.

Q: And the “sodium overload and/or acid-base perturbations” value ([1]; DPAG at 1 mM arterial pyruvate)?
A: The value was “without sodium overload and/or acid-base perturbations”.

Q: What about the “increases in glucose and lactate concentrations” value ([1]; DPAG at 120% of the caloric requirement) of the same compound?
A: The value was “lack of major increases in glucose and lactate concentrations”.

Q: And the fold induction at 500 µM (perfused rat livers [2])?
A: Its fold induction at 500 µM is 2.5.

Q: What about the “decrease of total KB concentration” value ([3]; DPAG 90 μmol.min^-1 kg^-1 in saline infusion, in 2 hr) of the same compound?
A: The value was 90%.

Q: And the “tolerability of massive doses” value ([3]; compromised BB rats in diabetic ketoacidosis)?
A: The value was “well tolerated”.

Q: For `O=C(O)O` [NH4 HCO3], which “rate of ethanol oxidation” value (ethanol oxidation) is on record?
A: The value was “increases the rate of ethanol oxidation”.

Q: With `CCOC(=O)[C@H](CSC(=O)C(C)=O)NC(C)=O` [PNACE, Pyruvate-N-acetyl-L-cysteine ethyl ester] as the compound, how does the “infarct size, percent of the area at risk for infarction” value (myocardial infarct; PNACE group (n=4)) read?
A: The value was “about 16±4%”.

Q: What about the “duration of functional recovery” value (isolated rabbit hearts [4]) of the same compound?
A: The value was “lasted throughout the 30 minute reperfusion experiment”.

Q: And the “stability in slightly acidic solutions” value ([5]; pH 4-5)?
A: The value was “stable”.

Q: What about the “hydrolysis to pyruvate and N-acetylcysteine ethyl ester” value ([5]; pH 7.4) of the same compound?
A: The value was “slowly hydrolyzed”.

Q: What about the “Release of lactate dehydrogenase” value (preserved rat livers; Group III preserved + PNACE (20 μM), 10-14 min.) of the same compound?
A: The value was 4.5 U/L.g.

Q: What about the Oxygen consumption (preserved rat livers; [8]) of the same compound?
A: The Oxygen consumption was 2.4 µmol/min/g.

Q: And the “Release of alanine aminotransferase” value (preserved rat livers; [8])?
A: Its value is 0.33 U/L.g.

Q: What about the “Release of aspartate amino-transferase” value (preserved rat livers; [8]) of the same compound?
A: Its value is 0.73 U/L.g.

Q: What about the Ketone body production (preserved rat livers; Group III preserved + PNACE (20 μM), 25-30 min., 1 mM octanoate) of the same compound?
A: The Ketone body production was 1.4 µmol/min/g.

Q: What about the “capacity of the liver to oxidize fatty acids to ketone bodies” value (preserved rat livers; [9]) of the same compound?
A: The value was “restores partially the capacity of the liver to oxidize fatty acids to ketone bodies”.

Q: What about the “initial release of tissue enzymes” value (preserved rat livers; [9]) of the same compound?
A: The value was “markedly decreases the initial release of tissue enzymes”.

Q: What about the “oxygen consumption (in words)” value (preserved rat livers; [9]) of the same compound?
A: Its value is “restores oxygen consumption to the level of non-preserved livers”.

Q: Which “production of ROS” value (reperfused rat hearts) does the source give for `CC(=O)N[C@@H](CS)C(=O)O` [acetylcysteine] here?
A: Its value is “decreases the production of ROS”.

Q: With `CC(C)NCC(O)c1ccc(O)c(O)c1` (stereo not shown) [isoproterenol] as the compound, how does the “cardiac output after isoproterenol” value (isolated rabbit hearts [6]) read?
A: Its value is “almost zero”.

Q: For `CC(=O)C(=O)O` [pyruvate], which “increase in ethanol uptake by perfused rat livers” value (perfused rat livers [7]) is on record?
A: Its value is 3-6 fold.

Q: For insulin, which “decrease of total KB concentration” value ([3]; 0.75 U insulin intravenously + saline, 2 hr) is on record?
A: The value was 30%.
